The record followed here is ChEMBL document CHEMBL4177582, “Modifications of flexible nonyl chain and nucleobase head group of (+)-erythro-9-(2's-hydroxy-3's-nonyl)adenine [(+)-EHNA] as adenosine deaminase inhibitors” (Bioorg Med Chem, 2017).

The target of this experiment is T1, Adenosine deaminase (Bos taurus, UniProt P56658).
T1 sequence (P56658 whole entry): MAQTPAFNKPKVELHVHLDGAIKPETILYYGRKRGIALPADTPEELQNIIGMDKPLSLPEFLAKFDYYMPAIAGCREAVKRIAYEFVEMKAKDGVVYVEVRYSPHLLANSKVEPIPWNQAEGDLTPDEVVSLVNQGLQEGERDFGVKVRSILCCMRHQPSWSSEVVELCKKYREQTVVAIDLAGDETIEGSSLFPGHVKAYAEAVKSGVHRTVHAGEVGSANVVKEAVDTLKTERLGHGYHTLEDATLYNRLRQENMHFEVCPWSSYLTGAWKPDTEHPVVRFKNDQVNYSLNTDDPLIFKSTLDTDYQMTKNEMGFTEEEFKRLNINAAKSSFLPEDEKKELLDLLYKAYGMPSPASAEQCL
Kind of experiment: Inhibition of bovine adenosine deaminase pre-incubated for 5 mins before adenosine addition.

SMILES strings stand for the structures.

In general, Ki refers to the equilibrium dissociation constant of an inhibitor or competing ligand from its target.

Take `C[C@H](O)[C@@H](CCc1cccc(Br)c1)n1cnc2c(N)ncnc21`: the Ki (read-out: Ki) came to 0.6 nM.
Consider `C[C@H](O)[C@@H](CCc1cccc(C(=O)N2CCCC2)c1)n1cnc2c(N)ncnc21`, for which the Ki (read-out: Ki) is 2.2 nM.
`C[C@H](O)[C@@H](CCc1cccc(C(=O)NC2CCCC2)c1)n1cnc2c(N)ncnc21`: the Ki (read-out: Ki) is 1.8 nM.
Same read-out and setting: to `C[C@H](O)[C@@H](CCc1cccc(C(=O)O)c1)n1cnc2c(N)ncnc21` belongs 53 nM.
Take `C[C@H](O)[C@@H](CCc1ccc(C(F)(F)F)cc1)n1ccc2c(N)ncnc21`: the Ki result is reported as “Not Active”.
In the case of `Cc1ccccc1SC[C@H]([C@H](C)O)n1cnc2c(N)ncnc21`, the Ki (read-out: Ki) was 66 nM.
Still for that read-out and setting: under `Cc1cccc(SC[C@H]([C@H](C)O)n2cnc3c(N)ncnc32)c1` stands 49 nM; under `C[C@H](O)[C@@H](CCc1cccc(F)c1)n1cnc2c(N)ncnc21`, 1.6 nM.
On the same count and under the same terms, under `CC(C)(O)[C@@H](CCc1ccc(C(F)(F)F)cc1)n1cnc2c(N)ncnc21` stands 69 nM.
`C[C@H](O)[C@@H](CCc1cccc(C(F)(F)F)c1)n1ccc2c(N)ncnc21`: the Ki entry is recorded as “Not Active”.
Same read-out and setting: under `C[C@H](O)[C@@H](CCc1ccc(C(F)(F)F)cc1)n1ncc2c(N)ncnc21` stands “Not Active”.
For the compound `C[C@H](O)[C@@H](CSc1ccccc1)n1cnc2c(N)ncnc21`, the Ki (read-out: Ki) was found to be 135 nM.
Turning to `C[C@H](O)[C@@H](CCc1cccc(C(N)=O)c1)n1cnc2c(N)ncnc21`, the Ki (read-out: Ki) came out at 2.9 nM.
Regarding `CC(=O)[C@@H](CCc1ccc(C(F)(F)F)cc1)n1cnc2c(N)ncnc21`, the Ki result is recorded as “Not Active”.
Turning to `C[C@H](O)[C@@H](CCc1ccccc1C(F)(F)F)n1cnc2c(N)ncnc21`, the Ki (read-out: Ki) worked out at 6.2 nM.
As to `C[C@H](O)[C@@H](CCc1ccc(C(F)(F)F)cc1)n1cnc(C(N)=O)c1`, the Ki (read-out: Ki) amounted to 29 nM.
For `C[C@H](O)[C@@H](CCc1cccc(C(F)(F)F)c1)n1ncc2c(N)ncnc21`, the Ki result was “Not Active”.
For the compound `C[C@H](O)[C@@H](CCc1cccc(C(=O)N(C)C)c1)n1cnc2c(N)ncnc21`, the inhibition constant (Ki) (read-out: Ki) came out at 1.8 nM.
Still for that read-out and setting: under `C[C@H](O)[C@@H](CCc1cccc(CO)c1)n1cnc2c(N)ncnc21` stands 4.6 nM.
